Results from US20130053430A1, “MODULATION OF CETP EXPRESSION” (Isis Pharmaceuticals, Inc., priority 2010, published 2013).
e = 2'-O-(2-methoxyethyl) (MOE); d = 2'-deoxy (DNA)

Key:
[1] = Plasma cholesterol and triglyceride levels in huCETP transgenic mice (Example 5); type: in vivo; conditions: 50 mg/kg i.p. twice per week; for HDL / LDL / Total cholesterol / Triglycerides / VLDL: plasma
Procedure: (§1) The mice were divided into five treatment groups. The first four groups received intraperitoneal injections of ISIS 349511, ISIS 349512, ISIS 349515, or ISIS 349517 at a dose of 50 mg/kg twice per week for 6 weeks. The fifth group received intraperitoneal injections of saline twice weekly for 6 weeks.
Plasma cholesterol were extracted at weeks 3 and 6 by the method of Bligh and Dyer (Bligh, E. G. and Dyer, W. J. Can. J. Biochem. Physiol. 37: 911-917, 1959) and measured with an Olympus clinical analyzer (Hitachi Olympus AU400e, Melville, N.Y.). HDL, LDL and VLDL cholesterol were individually measured by HPLC. Triglyceride levels were measured with the use of a commercially available triglyceride kit (DCL Triglyceride Reagent; Diagnostic Chemicals Ltd.). The results are presented in Tables 13 and 14 and are expressed in mg/dL. There was a significant increase in HDL levels in mice treated with ISIS oligonucleotides.

[2] = Organ weights (Example 6); type: in vivo, mice; conditions: 50 mg/kg s.c. twice per week for 6 weeks, end of study
Source text: (§2) The normal chow-fed mice were divided into three treatment groups. The cholesterol-enriched chow-fed mice were divided into three treatment groups. […] One chow-fed group and one cholesterol-enriched chow-fed group received subcutaneous injections of saline twice weekly for 6 weeks. The saline-injected groups served as the control groups to which the corresponding oligonucleotide-treated groups were compared.

[3] = Plasma cholesterol and triglyceride levels (Example 6); type: in vivo, mice; conditions: 50 mg/kg s.c. twice per week
Source text: as §2
Plasma cholesterol were extracted at weeks 3 and 6 by the method of Bligh and Dyer (Bligh, E. G. and Dyer, W. J. Can. J. Biochem. Physiol. 37: 911-917, 1959) and measured on weeks 0, 3 and 6 with an Olympus clinical analyzer (Hitachi Olympus AU400e, Melville, N.Y.). HDL, LDL and VLDL cholesterol were individually measured by HPLC. Triglyceride levels were measured on weeks 0, 3 and 6 with the use of a commercially available triglyceride kit (DCL Triglyceride Reagent; Diagnostic Chemicals Ltd.). VLDL levels were measured on week 6. The results are presented in Tables 22-26 and are expressed in mg/dL.

[4] = Body and organ weights of huCETP transgenic mice (Example 5); type: in vivo; conditions: 50 mg/kg i.p. twice per week
Procedure: as §1
The body weights of the mice were measured pre-dose and regularly during the treatment period. The body weights are presented in Table 10, and are expressed in grams.

## ISIS 349511: 5-10-5 MOE gapmer CCCGACCTCCTTGGAGACTT (sugars from the 5' end e5 d10 e5, backbone and methylation of C not given here)
[1]; Week 3
  Percentage of HDL in total cholesterol: 73%
[1]; week 6
  Percentage of HDL in total cholesterol: 76%
  HDL: 66 mg/dL
  LDL: 17 mg/dL
  Total cholesterol: 88 mg/dL
  Triglycerides: 84 mg/dL
  VLDL: 4 mg/dL
[1]; week 3
  HDL: 60 mg/dL
  LDL: 15 mg/dL
  Total cholesterol: 83 mg/dL
  Triglycerides: 87 mg/dL
[2]; Cholesterol chow
  Kidney weight: 305 mg
  Liver weight: 1.4 g
  Spleen weight: 80 mg
[2]; Normal chow
  Kidney weight: 248 mg
  Liver weight: 1.0 g
  Spleen weight: 74 mg
[3]; Cholesterol chow, Week 0
  HDL cholesterol levels: 51 mg/dL
  LDL cholesterol levels: 179 mg/dL
  Total cholesterol levels: 252 mg/dL
  Triglyceride levels: 101 mg/dL
[3]; Cholesterol chow, Week 3
  HDL cholesterol levels: 85 mg/dL
  LDL cholesterol levels: 576 mg/dL
  Total cholesterol levels: 714 mg/dL
  Triglyceride levels: 94 mg/dL
[3]; Cholesterol chow, Week 6
  HDL cholesterol levels: 136 mg/dL
  LDL cholesterol levels: 558 mg/dL
  Total cholesterol levels: 809 mg/dL
  Triglyceride levels: 99 mg/dL
  VLDL cholesterol levels: 115 mg/dL
[3]; Normal chow, Week 0
  HDL cholesterol levels: 51 mg/dL
  LDL cholesterol levels: 176 mg/dL
  Total cholesterol levels: 254 mg/dL
  Triglyceride levels: 80 mg/dL
[3]; Normal chow, Week 3
  HDL cholesterol levels: 56 mg/dL
  LDL cholesterol levels: 148 mg/dL
  Total cholesterol levels: 227 mg/dL
  Triglyceride levels: 90 mg/dL
[3]; Normal chow, Week 6
  HDL cholesterol levels: 98 mg/dL
  LDL cholesterol levels: 178 mg/dL
  Total cholesterol levels: 327 mg/dL
  Triglyceride levels: 101 mg/dL
  VLDL cholesterol levels: 50 mg/dL
[4]; Week 0
  Body weights: 19 grams
[4]; Week 1
  Body weights: 21 grams
[4]; Week 2
  Body weights: 23 grams
[4]; Week 4
  Body weights: 25 grams
[4]; week 6
  Body weights: 26 grams
  Organ weights, Kidney: 312.5 mg
  Organ weights, Liver: 1.3 g
  Organ weights, Spleen: 76.0 mg

## ISIS 349517: 5-10-5 MOE gapmer CAGCACTTTAATGCCAGTGG (sugars from the 5' end e5 d10 e5, backbone and methylation of C not given here)
[1]; Week 3
  Percentage of HDL in total cholesterol: 75%
[1]; week 6
  Percentage of HDL in total cholesterol: 74%
  HDL: 55 mg/dL
  LDL: 15 mg/dL
  Total cholesterol: 75 mg/dL
  Triglycerides: 103 mg/dL
  VLDL: 4 mg/dL
[1]; week 3
  HDL: 59 mg/dL
  LDL: 14 mg/dL
  Total cholesterol: 79 mg/dL
  Triglycerides: 68 mg/dL
[2]; Cholesterol chow
  Kidney weight: 317 mg
  Liver weight: 1.8 g
  Spleen weight: 93 mg
[2]; Normal chow
  Kidney weight: 279 mg
  Liver weight: 1.6 g
  Spleen weight: 113 mg
[3]; Cholesterol chow, Week 0
  HDL cholesterol levels: 49 mg/dL
  LDL cholesterol levels: 134 mg/dL
  Total cholesterol levels: 201 mg/dL
  Triglyceride levels: 84 mg/dL
[3]; Cholesterol chow, Week 3
  HDL cholesterol levels: 78 mg/dL
  LDL cholesterol levels: 597 mg/dL
  Total cholesterol levels: 739 mg/dL
  Triglyceride levels: 107 mg/dL
[3]; Cholesterol chow, Week 6
  HDL cholesterol levels: 122 mg/dL
  LDL cholesterol levels: 486 mg/dL
  Total cholesterol levels: 695 mg/dL
  Triglyceride levels: 102 mg/dL
  VLDL cholesterol levels: 88 mg/dL
[3]; Normal chow, Week 0
  HDL cholesterol levels: 53 mg/dL
  LDL cholesterol levels: 162 mg/dL
  Total cholesterol levels: 237 mg/dL
  Triglyceride levels: 66 mg/dL
[3]; Normal chow, Week 3
  HDL cholesterol levels: 64 mg/dL
  LDL cholesterol levels: 146 mg/dL
  Total cholesterol levels: 238 mg/dL
  Triglyceride levels: 97 mg/dL
[3]; Normal chow, Week 6
  HDL cholesterol levels: 100 mg/dL
  LDL cholesterol levels: 220 mg/dL
  Total cholesterol levels: 375 mg/dL
  Triglyceride levels: 91 mg/dL
  VLDL cholesterol levels: 55 mg/dL
[4]; Week 0
  Body weights: 25 grams
[4]; Week 1
  Body weights: 27 grams
[4]; Week 2
  Body weights: 28 grams
[4]; Week 4
  Body weights: 28 grams
[4]; week 6
  Body weights: 29 grams
  Organ weights, Kidney: 355.5 mg
  Organ weights, Liver: 1.7 g
  Organ weights, Spleen: 89.0 mg
